Experimental data reported in ChEMBL document CHEMBL1201862, “PubChem BioAssay data set” (2004).
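Protocol summary: plate cells (96-well), add compound at 5 concentrations, incubate 48 h, interpolate endpoints linearly. Here, GI50 denotes the concentration required for 50% inhibition of growth.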 Activity calls are given as the source filed them. Cut-off read from the data, not from the text of the source: active = GI50 up to about 1.1 µM and inactive = higher.

Assays:
Assay in all cases: inhibition of tumour cell growth, NCI panel, 48 h
786-0 = tested on: 786-0
A549 = tested on: A549
ACHN = tested on: ACHN
CAKI-1 = tested on: CAKI-1
CCRF-CEM = tested on: CCRF-CEM
COLO 205 = tested on: COLO 205
DLD-1 = tested on: DLD-1
DMS-114 = tested on: DMS-114
DMS-273 = tested on: DMS-273
EKVX = tested on: EKVX
HCC 2998 = tested on: HCC 2998
HCT-15 = tested on: HCT-15
HL-60 = tested on: HL-60
HOP-18 = tested on: HOP-18
HOP-62 = tested on: HOP-62
HOP-92 = tested on: HOP-92
HT-29 = tested on: HT-29
IGROV-1 = tested on: IGROV-1
K562 = tested on: K562
KM-20L2 = tested on: KM-20L2
KM12 = tested on: KM12
LOX IMVI = tested on: LOX IMVI
LXFL 529 = tested on: LXFL 529
M14 = tested on: M14
M19-MEL = tested on: M19-MEL
MOLT-4 = tested on: MOLT-4
Malme-3M = tested on: Malme-3M
NCI-H23 = tested on: NCI-H23
NCI-H460 = tested on: NCI-H460
NCI-H522 = tested on: NCI-H522
OVCAR-3 = tested on: OVCAR-3
OVCAR-4 = tested on: OVCAR-4
OVCAR-5 = tested on: OVCAR-5
OVCAR-8 = tested on: OVCAR-8
RPMI-8226 = tested on: RPMI-8226
RXF 393 = tested on: RXF 393
SF-268 = tested on: SF-268
SF-295 = tested on: SF-295
SF-539 = tested on: SF-539
SK-MEL-28 = tested on: SK-MEL-28
SK-MEL-2 = tested on: SK-MEL-2
SK-MEL-5 = tested on: SK-MEL-5
SK-OV-3 = tested on: SK-OV-3
SN12C = tested on: SN12C
SNB-19 = tested on: SNB-19
SNB-75 = tested on: SNB-75
SW-620 = tested on: SW-620
TK-10 = tested on: TK-10
U-251 = tested on: U-251
UACC-257 = tested on: UACC-257
UACC-62 = tested on: UACC-62
UO-31 = tested on: UO-31

Measured: GI50

O=S1(=O)[C@H](c2ccccc2)c2c(-c3ccccc3)sc(-c3ccccc3)c2[C@@H]1c1ccccc1
> 100 µM: HCT-15
inactive: 786-0 38.9 µM | A549 > 100 µM | ACHN > 100 µM | CAKI-1 > 100 µM | CCRF-CEM > 100 µM | COLO 205 > 100 µM | DLD-1 > 100 µM | DMS-114 > 100 µM | DMS-273 > 100 µM | EKVX > 100 µM | HCC 2998 > 100 µM | HL-60 > 100 µM | HOP-18 77.1 µM | HOP-62 > 100 µM | HOP-92 27 µM | HT-29 > 100 µM | IGROV-1 > 100 µM | K562 > 100 µM | KM-20L2 > 100 µM | KM12 > 100 µM | LOX IMVI 58.5 µM | LXFL 529 88.1 µM | M14 > 100 µM | M19-MEL > 100 µM | MOLT-4 > 100 µM | Malme-3M 94.2 µM | NCI-H23 > 100 µM | NCI-H460 > 100 µM | NCI-H522 13 µM | OVCAR-3 > 100 µM | OVCAR-4 48.1 µM | OVCAR-5 3.81 µM | OVCAR-8 > 100 µM | RPMI-8226 > 100 µM | RXF 393 39.8 µM | SF-268 > 100 µM | SF-295 > 100 µM | SF-539 > 100 µM | SK-MEL-28 > 100 µM | SK-MEL-2 > 100 µM | SK-MEL-5 71.9 µM | SK-OV-3 > 100 µM | SN12C > 100 µM | SNB-19 > 100 µM | SNB-75 26.1 µM | SW-620 > 100 µM | TK-10 > 100 µM | U-251 > 100 µM | UACC-257 > 100 µM | UACC-62 > 100 µM | UO-31 > 100 µM
